Data: patent publication US20240116946A1 (Gilead Sciences, Inc., priority 2022, published 2024)
pEC50, pIC50: −log10 of the molar value. Read-outs that look alike come from different tables or passages of the source.

Assays:
[1] = system: SARS-CoV-2-NLuc; assay: microbe, parasite or virus in culture; format: cell-based, SARS Coronavirus 2
[2] = target: recombinant SARS-CoV-2 Main protease (Mpro) (Severe acute respiratory syndrome coronavirus 2 (2019-nCoV) (SARS-CoV-2), UniProt P0DTD1); assay: Cov Mpro Biochemical IC50 Assay; settings: read-out: MPro IC50
[3] = recombinant SARS-CoV-2 Mpro 7.5 nM, fluorogenic peptide substrate 40 μM
[4] = Severe acute respiratory syndrome coronavirus, 48 h; read-out: MPro EC50
[5] = Severe acute respiratory syndrome coronavirus, 48 h, read-out: MPro EC50
[6] = recombinant SARS-CoV-2 Mpro, fluorogenic peptide substrate

| Structure (SMILES) | pEC50 ([1]; read-out: MPro EC50) | pIC50 [2, 3] | pEC50 [1, 4] | pEC50 [1, 5] | pIC50 [2, 6] |
| --- | --- | --- | --- | --- | --- |
| COc1cc(-c2cc3c(s2)c(=O)n(-c2cncc4cnn(C)c24)c(=O)n3CCC#N)c(C#N)cc1F (single isomer, unassigned) [Example 1004, 2-[1-(2-cyanoethyl)-3-(1-methylpyrazolo[4,3-c]pyridin-7-yl)-2,4-dioxo-thieno[3,2-d]pyrimidin-6-yl]-5-fluoro-4-methoxy-benzonitrile] | 6.95 | 7.15 | – | – | – |
| COc1ccc(Cl)c(-c2cc3[nH]c(=O)n(-c4cncc5ccc(N6CCOCC6)cc45)c(=O)c3s2)c1 [Example 432] | – | 8.16 | 8.20 | – | – |
| CO[C@H]1CCN(c2ccc3cncc(-n4c(=O)[nH]c5cc(-c6ccccc6Cl)sc5c4=O)c3c2)C1 [Example 398] | – | 8.47 | – | 7.73 | – |
| COc1ccc(-c2cc3[nH]c(=O)n(-c4cncc5ccccc45)c(=O)c3s2)c(C#N)c1 [Example 539] | – | 6.85 | – | 6.17 | – |
| COc1cc(-c2cc3c(s2)c(=O)n(-c2cncc(C#N)c2C)c(=O)n3CCC#N)c(Cl)cc1F [Example 868] | – | 8.01 | – | 7.58 | – |
| COc1cc(-c2cccc(Cl)c2-c2ccc3c(=O)n(-c4cncc5ccccc45)c(=O)[nH]c3c2)cn2ncnc12 [Example 143] | – | – | 7.10 | – | 7.97 |
| COc1cc(-c2cc3c(s2)c(=O)n(-c2cncc4nc(C(F)(F)F)n(C)c24)c(=O)n3CCC#N)c(Cl)cc1F [Example 856, 3-(6-(2-chloro-4-fluoro-5-methoxyphenyl)-3-(1-methyl-2-(trifluoromethyl)-1H-imidazo[4,5-c]pyridin-7-yl)-2,4-dioxo-3,4-dihydrothieno[3,2-d]pyrimidin-1(2H)-yl)propanenitrile] | – | 7.63 | – | 7.34 | – |
| COc1cc(-c2cc3c(s2)c(=O)n(-c2cncc4nc(-c5ccc(F)cc5)n(C)c24)c(=O)n3CCC#N)c(Cl)cc1F [Example 758] | – | 7.72 | – | 6.85 | – |
| COc1cncc(-n2c(=O)[nH]c3cc(-c4ccccc4Cl)ccc3c2=O)c1C [Example 141] | – | – | – | 4.49 | 5.18 |
| O=c1[nH]c2cc(-c3ccccc3Cl)sc2c(=O)n1-c1cncc2ccc(N3CCC(O)(C(F)(F)F)CC3)cc12 [Example 427] | – | 7.81 | – | 7.62 | – |
| Cc1nn(C)cc1-c1cc2[nH]c(=O)n(-c3cncc4ccccc34)c(=O)c2s1 [Example 363] | – | – | – | 6.10 | 6.89 |
| COc1cc(-c2cc3c(s2)c(=O)n(-c2cncc4nc(C)n(C)c24)c(=O)n3CCC#N)c(Cl)cc1F (single isomer, unassigned) [Example 970, 3-(6-(2-chloro-4-fluoro-5-methoxyphenyl)-3-(1,2-dimethyl-1H-imidazo[4,5-c]pyridin-7-yl)-2,4-dioxo-3,4-dihydrothieno[3,2-d]pyrimidin-1(2H)-yl)propanenitrile] | 7.72 | 8.40 | – | – | – |
| COc1cc(-c2cc3c(s2)c(=O)n(-c2cncc4cnn(C)c24)c(=O)n3CCC#N)c(C#N)cc1F [Example 999, 2-(1-(2-cyanoethyl)-3-(1-methyl-1H-pyrazolo[4,3-c]pyridin-7-yl)-2,4-dioxo-1,2,3,4-tetrahydrothieno[3,2-d]pyrimidin-6-yl)-5-fluoro-4-methoxybenzonitrile] | – | 8.15 | 7.80 | – | – |
| COc1cc(Cl)c(-c2cc3[nH]c(=O)n(-c4cncc5ccccc45)c(=O)c3s2)cc1C [Example 723] | – | 7.67 | – | 7.77 | – |
| Cn1ncc2cncc(-n3c(=O)c4sc(-c5ccc(C#N)cc5Cl)cc4n(CCC#N)c3=O)c21 [Example 1025] | – | 7.06 | – | 6.61 | – |
| Cc1cc(-c2cccc(Cl)c2-c2cc3[nH]c(=O)n(-c4cncc5ccccc45)c(=O)c3s2)cn2ncnc12 [Example 113] | – | – | – | > 8.14 | 8.14 |
| Cc1cncc(-c2cccc(Cl)c2-c2ccc3c(=O)n(-c4cncc5ccccc45)c(=O)[nH]c3c2)c1 [Example 198] | – | – | – | 8.07 | 8.06 |
| COc1cc(-c2cc3c(s2)c(=O)n(-c2cncc4c2c(C)nn4C)c(=O)n3CCC#N)c(Cl)cc1F (single isomer, unassigned) [Example 1043, 3-(6-(2-chloro-4-fluoro-5-methoxyphenyl)-3-(1,3-dimethyl-1H-pyrazolo[3,4-c]pyridin-4-yl)-2,4-dioxo-3,4-dihydrothieno[3,2-d]pyrimidin-1(2H)-yl)propanenitrile] | < 6.00 | < 6.00 | – | – | – |
| Cn1c(C(F)(F)F)nc2cncc(-n3c(=O)c4sc(-c5ccc(F)cc5Cl)cc4n(CCC#N)c3=O)c21 [Example 857] | – | 6.79 | 6.46 | – | – |
| O=C(C1CC1)N1CCN(c2ccc3cncc(-n4c(=O)[nH]c5cc(-c6ccccc6Cl)sc5c4=O)c3c2)CC1 [Example 423] | – | 8.19 | – | 7.27 | – |
| COc1ccc(C#N)c(-c2cc3[nH]c(=O)n(-c4cncc5ccc(F)cc45)c(=O)c3s2)c1 [Example 589] | – | 8.30 | – | 7.63 | – |
| CC(C)(O)CNc1ccc2cncc(-n3c(=O)[nH]c4cc(-c5ccccc5Cl)sc4c3=O)c2c1 [Example 389] | – | – | – | 6.88 | 7.57 |
| COc1cc(-c2cc3c(s2)c(=O)n(-c2cncc4c(F)cccc24)c(=O)n3CCC#N)c(Cl)cc1F [Example 950] | – | 8.35 | – | 7.93 | – |
